Literature values in US20250188545A1, “METHODS FOR PREDICTING RESPONSIVENESS OF LYMPHOMA TO DRUG AND METHODS FOR TREATING LYMPHOMA” (Celgene Corporation, priority 2022, published 2025).

Tested on: high-risk ABC DLBCL population
Settings: PHOENIX (ibrutinib), ROBUST (lenalidomide)

SMILES: Nc1cccc2c1CN(C1CCC(=O)NC1=O)C2=O (stereo not shown) [lenalidomide]
- activity combined with R-CHOP compared to R-CHOP alone: did not demonstrate greater activities
